Data as given in US20260365670A1, “EGFR INHIBITORS AND USES THEREOF” (DIZAL (JIANGSU) PHARMACEUTICAL CO., LTD., priority 2022, published 2026).
Where two headings read alike, the source gives them in different places.

Tests used:
A-431 = test: Cell proliferation GI50, A-431 cells (Table 6); type: cell-based; settings: A-431 cells
Protocol: [Worded in the source for another cell line; this cell line is reported under the same test.] Ba/F3 cells expressing EGFR mutations were seeded in 384-well plates at 5000 cells/well in RPMI1640 medium containing […]. PC-9 at 500 cells/well was seeded into 384-well plates in RPMI1640 medium with 10% FBS. After overnight incubation, the assay plates were dosed with compounds at a series of concentrations. Alongside dosing the assay plates, the day 0 plate was processed using CellTiter-Glo® Luminescent Cell Viability Assay (Promega) to measure the number of viable cells (G0). The assay plates were further incubated for 72 hours and the number of viable cells (G3) was measured. The percentage of proliferation was calculated as: […]=100×(G3 value of sample well−G0 value)/(G3 value of DMSO control−G0 value). The concentration of compound producing 50% proliferation inhibition (GI50) was further calculated in best-fit curves using XLFit software. N/A=not available.

PC-9 = test: Cell proliferation assay, PC-9 cells (CellTiter-Glo, 72 hours); type: cell-based; settings: PC9 cells
Procedure, shortened: (§1)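 In RPMI1640 medium (PC-9 with 10% FBS), each cell line was seeded at its own density: Ba/F3 5000 and PC-9 500 per well. A compound series was added the next day, with a time-zero viability plate read in parallel. Percent proliferation was subtracted for G0 and referenced to DMSO, and GI50 was derived by curve fitting.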

[1] = test system: Ba/F3 cells expressing EGFR mutations; test: Cell proliferation assay, Ba/F3 cells expressing EGFR mutations (CellTiter-Glo, 72 hours); type: cell-based
Procedure, shortened: as §1

EGFR L858R = molecular target: T1, EGFR L858R (Homo sapiens, UniProt P00533, L858R); test: Inhibition of EGFR L858R biochemical enzymatic activity (HTRF); settings: 1 mM ATP, 1 h at room temperature
T1 construct: purchased Carna Bio
Procedure, shortened: (§2)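 Compounds at varying concentrations were tested against each EGFR form using 1 mM ATP and 1 μM TK Substrate-biotin. Reactions ran 1 h at room temperature in Mg2+/Mn2+ buffer with CHAPS, DTT and 0.5% DMSO. Time-resolved fluorescence gave IC50 by four-parameter fit.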

EGFR L858R/T790M = molecular target: T2, EGFR L858R/T790M (Homo sapiens, UniProt P00533, L858R/T790M); test: Inhibition of EGFR L858R/T790M biochemical enzymatic activity (HTRF); settings: EGFR L858R/T790M, 1 mM ATP, 1 h at room temperature
T2 construct: purchased Carna Bio
Procedure, shortened: as §2

EGFR[T790M/C797S/L858R] = molecular target: T3, EGFR[T790M/C797S/L858R] (Homo sapiens, UniProt P00533, C797S/L858R/T790M); test: Inhibition of EGFR[T790M/C797S/L858R] biochemical enzymatic activity (HTRF); settings: EGFR[T790M/C797S/L858R], 1 mM ATP, 1 h at room temperature
T3 construct: purchased Carna Bio
Procedure, shortened: as §2

EGFR wild type = molecular target: T4, EGFR wild type (Homo sapiens, UniProt P00533); test: Inhibition of EGFR wild type biochemical enzymatic activity (HTRF); settings: EGFR wild type, 1 mM ATP, 1 h at room temperature
T4 construct: purchased Carna Bio
Procedure, shortened: as §2

EGFR (d746-750 C797S) = molecular target: T5, EGFR (d746-750 C797S) (Homo sapiens, UniProt P00533, C797S/DEL746-750); test: Inhibition of EGFR (d746-750 C797S) biochemical enzymatic activity (HTRF); settings: EGFR (d746-750 C797S), 1 mM ATP, 1 h at room temperature
T5 construct: purchased signalchem
Procedure, shortened: as §2

[2] = molecular target: T6, EGFR[T790M/C797S/d746-750] (Homo sapiens, UniProt P00533, C797S/DEL746-750/T790M); test: Inhibition of EGFR[T790M/C797S/d746-750] biochemical enzymatic activity (HTRF); settings: 1 mM ATP, 1 h at room temperature
T6 construct: purchased Carna Bio
Procedure, shortened: as §2

EGFR (C797S L858R) = molecular target: T7, EGFR (C797S L858R) (Homo sapiens, UniProt P00533, C797S/L858R); test: Inhibition of EGFR (C797S L858R) biochemical enzymatic activity (HTRF); settings: EGFR (C797S L858R), 1 mM ATP, 1 h at room temperature
T7 construct: purchased signalchem
Procedure, shortened: as §2

EGFR Exon19Del/T790M = molecular target: T8, EGFR Exon19Del/T790M (Homo sapiens, UniProt P00533, DEL746-750/T790M); test: Inhibition of EGFR Exon19Del/T790M biochemical enzymatic activity (HTRF); settings: EGFR Exon19Del/T790M, 1 mM ATP, 1 h at room temperature
T8 construct: purchased Carna Bio
Procedure, shortened: as §2

EGFR Exon19Del = molecular target: T9, EGFR Exon19Del (Homo sapiens, UniProt P00533, DEL746-750); test: Inhibition of EGFR Exon19Del biochemical enzymatic activity (HTRF); settings: 1 mM ATP, 1 h at room temperature
T9 construct: purchased Carna Bio
Procedure, shortened: as §2

[3] = CellTiter-Glo, read-out: PC9 GI50
[4] = BaF3 cells, EGFR DEL19-C797S, CellTiter-Glo, read-out: DEL19-C797S/BaF3 GI50
[5] = BaF3 cells, EGFR DEL19-T790-C797S, CellTiter-Glo, read-out: DEL19-T790-C797S/BaF3 GI50
[6] = BaF3 cells, EGFR L858R, CellTiter-Glo, read-out: L858R/BaF3 GI50
[7] = BaF3 cells, EGFR L858R-C797S, CellTiter-Glo, read-out: L858R-C797S/BaF3 GI50
[8] = BaF3 cells, EGFR L858R-T790-C797S, CellTiter-Glo, read-out: L858R-T790-C797S/BaF3 GI50
[9] = BaF3 cells, EGFR L858R-T790M, CellTiter-Glo, read-out: L858R-T790M/BaF3 GI50
[10] = EGFR DEL19-T790M, CellTiter-Glo, read-out: DEL19-T790M GI50
[11] = Homo sapiens, PC-9, 72 h, read-out: GI50 PC9
[12] = Mus musculus, BaF3, 72 h, BaF3 cells, EGFR DEL19 - C797S, read-out: GI50 DEL19 - C797S/BaF3
[13] = Mus musculus, BaF3, 72 h, BaF3 cells, EGFR DEL19 - T790-C797S, read-out: GI50 DEL19 - T790-C797S/BaF3
[14] = Mus musculus, BaF3, 72 h, BaF3 cells, EGFR L858R - C797S, read-out: GI50 L858R - C797S/BaF3
[15] = Mus musculus, BaF3, 72 h, BaF3 cells, EGFR L858R - T790-C797S, read-out: GI50 L858R - T790-C797S/BaF3
[16] = Mus musculus, BaF3, 72 h, BaF3 cells, EGFR L858R, read-out: GI50 L858R/BaF3
[17] = Mus musculus, BaF3, 72 h, EGFR DEL19 - T790M, read-out: GI50 DEL19 - T790M

T8 sequence (P00533 with tags, fused parts or gaps DEL746-750/T790M limits assumed): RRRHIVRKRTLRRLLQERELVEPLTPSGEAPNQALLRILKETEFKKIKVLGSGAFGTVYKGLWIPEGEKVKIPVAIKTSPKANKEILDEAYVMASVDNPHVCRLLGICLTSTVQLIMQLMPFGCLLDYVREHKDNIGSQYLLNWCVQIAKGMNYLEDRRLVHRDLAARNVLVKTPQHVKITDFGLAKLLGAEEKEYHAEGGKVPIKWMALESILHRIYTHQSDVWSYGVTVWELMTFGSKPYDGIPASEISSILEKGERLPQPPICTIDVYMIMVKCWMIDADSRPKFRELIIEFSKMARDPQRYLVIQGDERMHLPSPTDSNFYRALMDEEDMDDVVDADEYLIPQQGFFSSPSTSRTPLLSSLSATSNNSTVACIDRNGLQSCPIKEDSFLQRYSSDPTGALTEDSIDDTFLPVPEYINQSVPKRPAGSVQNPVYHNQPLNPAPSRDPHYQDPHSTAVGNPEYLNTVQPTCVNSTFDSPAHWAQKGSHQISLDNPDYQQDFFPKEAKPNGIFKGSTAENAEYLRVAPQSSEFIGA
T2 sequence (P00533 25-1210 T790M/L858R): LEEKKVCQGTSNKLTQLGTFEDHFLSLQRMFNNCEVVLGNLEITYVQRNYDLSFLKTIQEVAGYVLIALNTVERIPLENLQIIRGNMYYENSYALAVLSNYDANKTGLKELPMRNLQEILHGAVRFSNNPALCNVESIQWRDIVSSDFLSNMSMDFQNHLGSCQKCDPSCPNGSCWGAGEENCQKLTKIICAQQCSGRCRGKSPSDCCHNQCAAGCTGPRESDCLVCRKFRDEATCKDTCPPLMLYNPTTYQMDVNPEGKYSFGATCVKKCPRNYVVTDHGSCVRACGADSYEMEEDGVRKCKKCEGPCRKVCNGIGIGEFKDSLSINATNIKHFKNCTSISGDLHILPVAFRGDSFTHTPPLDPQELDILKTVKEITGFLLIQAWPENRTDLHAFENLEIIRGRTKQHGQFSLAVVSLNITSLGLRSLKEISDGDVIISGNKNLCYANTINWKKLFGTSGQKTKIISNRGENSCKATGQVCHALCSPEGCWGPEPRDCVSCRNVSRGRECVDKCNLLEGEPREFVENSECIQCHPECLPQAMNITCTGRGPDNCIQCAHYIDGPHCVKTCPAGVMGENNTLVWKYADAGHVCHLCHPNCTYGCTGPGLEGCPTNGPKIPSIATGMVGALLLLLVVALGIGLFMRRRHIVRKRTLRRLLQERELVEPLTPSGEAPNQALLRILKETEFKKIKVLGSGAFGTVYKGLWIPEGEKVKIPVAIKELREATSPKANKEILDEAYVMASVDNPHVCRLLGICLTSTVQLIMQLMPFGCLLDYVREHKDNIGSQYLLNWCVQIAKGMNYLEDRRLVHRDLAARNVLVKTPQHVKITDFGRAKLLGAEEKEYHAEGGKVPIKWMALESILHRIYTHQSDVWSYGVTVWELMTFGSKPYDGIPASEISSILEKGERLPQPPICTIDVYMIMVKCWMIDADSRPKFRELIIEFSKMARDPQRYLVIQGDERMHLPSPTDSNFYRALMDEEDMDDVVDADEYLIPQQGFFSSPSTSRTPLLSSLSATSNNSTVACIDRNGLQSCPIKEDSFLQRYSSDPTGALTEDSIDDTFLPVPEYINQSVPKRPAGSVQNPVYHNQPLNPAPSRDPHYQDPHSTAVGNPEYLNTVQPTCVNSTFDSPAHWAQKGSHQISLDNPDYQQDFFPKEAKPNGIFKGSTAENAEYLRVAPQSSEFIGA
T3 sequence (P00533 25-1210 T790M/C797S/L858R): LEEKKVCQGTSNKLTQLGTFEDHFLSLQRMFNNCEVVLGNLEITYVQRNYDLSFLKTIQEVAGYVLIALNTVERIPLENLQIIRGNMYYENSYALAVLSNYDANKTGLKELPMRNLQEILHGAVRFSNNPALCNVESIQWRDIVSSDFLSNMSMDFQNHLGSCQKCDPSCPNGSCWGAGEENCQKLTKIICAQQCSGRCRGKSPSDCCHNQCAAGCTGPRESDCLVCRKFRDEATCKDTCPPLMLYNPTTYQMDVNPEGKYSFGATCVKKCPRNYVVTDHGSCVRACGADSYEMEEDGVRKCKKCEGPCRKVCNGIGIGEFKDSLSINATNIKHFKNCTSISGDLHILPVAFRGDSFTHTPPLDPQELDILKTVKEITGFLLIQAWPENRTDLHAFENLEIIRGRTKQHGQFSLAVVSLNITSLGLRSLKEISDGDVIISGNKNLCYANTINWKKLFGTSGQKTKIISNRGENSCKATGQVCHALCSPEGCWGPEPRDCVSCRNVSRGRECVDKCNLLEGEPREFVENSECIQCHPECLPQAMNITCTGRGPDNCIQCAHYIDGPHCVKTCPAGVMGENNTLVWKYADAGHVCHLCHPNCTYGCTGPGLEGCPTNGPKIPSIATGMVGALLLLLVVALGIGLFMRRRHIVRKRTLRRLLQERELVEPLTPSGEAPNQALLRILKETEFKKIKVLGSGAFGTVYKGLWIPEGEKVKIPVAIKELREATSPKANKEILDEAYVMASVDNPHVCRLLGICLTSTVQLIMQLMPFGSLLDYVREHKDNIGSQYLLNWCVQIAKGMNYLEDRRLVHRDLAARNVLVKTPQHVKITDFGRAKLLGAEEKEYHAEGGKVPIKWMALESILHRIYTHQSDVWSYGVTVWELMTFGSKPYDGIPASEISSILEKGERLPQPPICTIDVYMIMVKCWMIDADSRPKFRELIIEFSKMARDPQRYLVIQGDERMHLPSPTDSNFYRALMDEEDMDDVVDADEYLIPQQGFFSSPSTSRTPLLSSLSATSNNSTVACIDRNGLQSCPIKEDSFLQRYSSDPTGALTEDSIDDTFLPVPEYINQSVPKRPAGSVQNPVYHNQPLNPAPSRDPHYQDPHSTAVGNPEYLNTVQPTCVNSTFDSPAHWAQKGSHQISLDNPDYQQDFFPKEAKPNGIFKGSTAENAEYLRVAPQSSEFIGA
T7 sequence (P00533 25-1210 C797S/L858R): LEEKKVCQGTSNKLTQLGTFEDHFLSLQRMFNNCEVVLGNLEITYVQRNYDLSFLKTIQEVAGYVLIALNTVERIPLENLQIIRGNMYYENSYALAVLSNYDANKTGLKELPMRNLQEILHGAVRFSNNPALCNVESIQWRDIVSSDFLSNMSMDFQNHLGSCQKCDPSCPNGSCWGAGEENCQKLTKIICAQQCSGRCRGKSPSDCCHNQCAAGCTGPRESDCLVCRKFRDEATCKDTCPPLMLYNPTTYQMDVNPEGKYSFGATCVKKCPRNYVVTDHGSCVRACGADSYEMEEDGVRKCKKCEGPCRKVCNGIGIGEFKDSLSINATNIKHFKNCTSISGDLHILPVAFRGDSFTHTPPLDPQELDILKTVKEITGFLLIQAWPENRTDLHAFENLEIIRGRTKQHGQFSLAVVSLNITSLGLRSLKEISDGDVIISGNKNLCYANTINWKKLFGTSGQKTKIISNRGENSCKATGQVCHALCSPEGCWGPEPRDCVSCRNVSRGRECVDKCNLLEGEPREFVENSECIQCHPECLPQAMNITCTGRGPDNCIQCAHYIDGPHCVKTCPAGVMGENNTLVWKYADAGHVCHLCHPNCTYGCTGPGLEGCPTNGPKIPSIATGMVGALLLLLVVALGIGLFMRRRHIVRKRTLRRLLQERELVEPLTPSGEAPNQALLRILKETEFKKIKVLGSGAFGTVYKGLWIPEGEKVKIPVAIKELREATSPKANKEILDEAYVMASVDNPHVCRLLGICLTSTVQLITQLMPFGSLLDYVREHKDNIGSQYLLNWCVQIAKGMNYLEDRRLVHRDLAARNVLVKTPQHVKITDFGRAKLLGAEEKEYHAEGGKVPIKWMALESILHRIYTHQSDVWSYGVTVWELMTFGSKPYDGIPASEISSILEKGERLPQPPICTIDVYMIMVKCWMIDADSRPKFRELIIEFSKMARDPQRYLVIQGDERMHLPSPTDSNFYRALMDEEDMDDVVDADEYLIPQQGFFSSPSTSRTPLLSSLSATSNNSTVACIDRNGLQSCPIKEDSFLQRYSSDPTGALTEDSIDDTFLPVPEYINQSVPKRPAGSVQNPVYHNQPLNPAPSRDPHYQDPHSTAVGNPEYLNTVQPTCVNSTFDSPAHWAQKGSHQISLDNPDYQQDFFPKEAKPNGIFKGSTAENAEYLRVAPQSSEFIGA
T9 sequence (P00533 with tags, fused parts or gaps DEL746-750 limits assumed): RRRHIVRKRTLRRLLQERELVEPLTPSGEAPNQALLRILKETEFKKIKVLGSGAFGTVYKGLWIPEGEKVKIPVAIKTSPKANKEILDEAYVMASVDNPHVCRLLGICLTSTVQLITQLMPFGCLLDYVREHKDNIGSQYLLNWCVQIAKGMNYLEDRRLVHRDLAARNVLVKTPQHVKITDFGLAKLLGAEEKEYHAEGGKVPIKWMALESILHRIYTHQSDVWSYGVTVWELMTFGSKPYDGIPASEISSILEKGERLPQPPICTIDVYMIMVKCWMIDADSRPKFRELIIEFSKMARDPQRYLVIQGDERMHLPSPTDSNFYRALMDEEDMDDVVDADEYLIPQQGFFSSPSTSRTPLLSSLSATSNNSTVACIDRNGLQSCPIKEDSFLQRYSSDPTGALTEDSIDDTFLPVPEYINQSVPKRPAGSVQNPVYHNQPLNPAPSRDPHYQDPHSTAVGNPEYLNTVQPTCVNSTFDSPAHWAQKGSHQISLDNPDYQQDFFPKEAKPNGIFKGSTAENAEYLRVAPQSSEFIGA

| GI50 (A-431) | GI50 (PC-9; [3]) | GI50 [1, 4] | GI50 [1, 5] | GI50 [1, 6] | GI50 [1, 7] | GI50 [1, 8] | GI50 [1, 9] | GI50 [1, 10] | Compound | other results |
| --- | --- | --- | --- | --- | --- | --- | --- | --- | --- | --- |
| 7120 nM | 1320 nM | 393 nM | 1350 nM | 2150 nM | 1200 nM | 2380 nM | 1050 nM | 1400 nM | Cn1ncc2c1OCCN1CC3CCC(C3)(C1)n1c(nc3ccc(N4CCOCC4)cc31)NC(=O)c1cc-2c(=O)n(C)c1 (single isomer, unassigned) [Example A62A, 15,21-Dimethyl-5-(morpholin-4-yl)-23-oxa-2,9,11,15,20,21,26-heptaazaheptacyclo[24.4.1.1^{1,28}.1^{13,17}.0^{2,10}.0^{3,8}.0^{18,22}]tritriaconta-3,5,7,9,13,17(33),18(22),19-octaene-12,16-dione] | – |
| 9370 nM | 841 nM | 324 nM | 540 nM | 2370 nM | 1020 nM | 988 nM | 3690 nM | 929 nM | CN1CCN(c2ccc3nc4n(c3c2)C23CCC(CN(CCOc5c(cnn5C)-c5cc(cn(C)c5=O)C(=O)N4)C2)C3)CC1 (single isomer, unassigned) [Example A63A] | – |
| 2200 nM | 710 nM | 209 nM | 452 nM | 945 nM | 561 nM | 656 nM | 1970 nM | 652 nM | CN(C)C1CN(c2ccc3nc4n(c3c2)C23CCC(CN(CCOc5c(cnn5C)-c5cc(cn(C)c5=O)C(=O)N4)C2)C3)C1 (single isomer, unassigned) [Example A65A] | – |
| 5320 nM | 460 nM | 196 nM | 409 nM | 480 nM | 402 nM | 366 nM | 1120 nM | 543 nM | CN1CC2CN(c3ccc4nc5n(c4c3)C34CCC(CN(CCOc6c(cnn6C)-c6cc(cn(C)c6=O)C(=O)N5)C3)C4)CC2C1 (single isomer, unassigned) [Example A68A] | – |
| 3100 nM | 554 nM | 188 nM | 411 nM | 603 nM | 452 nM | 463 nM | 1870 nM | 517 nM | CN1CCN(C2CN(c3ccc4nc5n(c4c3)C34CCC(CN(CCOc6c(cnn6C)-c6cc(cn(C)c6=O)C(=O)N5)C3)C4)C2)CC1 (single isomer, unassigned) [Example A70A] | – |
| 7860 nM | 787 nM | 286 nM | 579 nM | 1760 nM | 954 nM | 762 nM | 2410 nM | 735 nM | Cn1ncc2c1OCCN1CC3CCC(C3)(C1)n1c(nc3ccc(N4CCN(C5COC5)CC4)cc31)NC(=O)c1cc-2c(=O)n(C)c1 (single isomer, unassigned) [Example A71A] | – |
| – | – | – | – | – | – | – | – | – | Cc1cc2cc(n1)-c1cnn(C)c1OCCCCCn1c(nc3ccc4c(c31)CCN(CCN(C)C)C4)NC2=O [Example B23, 18-[2-(Dimethylamino)ethyl]-5,30-dimethyl-7-oxa-4,5,13,18,24,26,31-heptaazahexacyclo[26.3.1.0^{2,6}.0^{13,25}.0^{14,23}.0^{15,20}]dotriaconta-1(31),2(6),3,14,20,22,24,28(32),29-nonaen-27-one] | IC50 (EGFR L858R; IC50 @L858R): > 5000 nM; IC50 (EGFR L858R/T790M; IC50 @L858R-T790M): 12 nM; IC50 (EGFR[T790M/C797S/L858R]; IC50 @T790M- C797S - L858R): 5.4 nM; GI50 (PC-9; [11]): 113 nM; IC50 (EGFR wild type; IC50 @WT): > 5000 nM; IC50 (EGFR (d746-750 C797S); IC50 @Del19-C797S): 6.5 nM; IC50 ([2]; IC50 @T790M - C797S - Del19, EGFR[T790M/C797S/d746-750]): 2.5 nM; IC50 (EGFR (C797S L858R); IC50 @L858-C797S): 73 nM; IC50 (EGFR Exon19Del/T790M; IC50 @Del19-T790M): 3.8 nM; GI50 [1, 12]: 22 nM; GI50 [1, 13]: 15 nM; GI50 [1, 14]: 195 nM; GI50 [1, 15]: 5.9 nM; GI50 [1, 16]: 442 nM; GI50 [1, 17]: 7.2 nM; IC50 (EGFR Exon19Del; IC50 @Del19, EGFR Exon19Del): 16 nM |
| – | – | – | – | – | – | – | – | – | Cc1cc2cc(n1)-c1cnn(C)c1OCCN1CC3CCC(CC3)(C1)n1c(nc3ccc(N4CC[C@@H](N(C)C)C4)cc31)NC2=O [Example B29] | IC50 (EGFR L858R; read-out: IC50 @L858R): 352 nM; IC50 (EGFR L858R/T790M; read-out: IC50 @L858R-T790M): 28 nM; IC50 (EGFR[T790M/C797S/L858R]; read-out: IC50 @T790M- C797S - L858R): 13 nM; GI50 (PC-9; [11]): 155 nM; IC50 (EGFR wild type; read-out: IC50 @WT): > 5000 nM; IC50 (EGFR (d746-750 C797S); read-out: IC50 @Del19-C797S): 28 nM; IC50 ([2]; EGFR[T790M/C797S/d746-750], read-out: IC50 @T790M - C797S - Del19): 8.6 nM; IC50 (EGFR (C797S L858R); read-out: IC50 @L858-C797S): 204 nM; IC50 (EGFR Exon19Del/T790M; read-out: IC50 @Del19-T790M): 17 nM; GI50 [1, 12]: 26 nM; GI50 [1, 13]: 9 nM; GI50 [1, 14]: 171 nM; GI50 [1, 15]: 19 nM; GI50 ([1]; Mus musculus, BaF3, 72 h, BaF3 cells, EGFR L858R - T790M, read-out: GI50 L858R - T790M/BaF3): 37 nM; GI50 [1, 16]: 149 nM; GI50 [1, 17]: 11 nM; IC50 (EGFR Exon19Del; EGFR Exon19Del, read-out: IC50 @Del19): 45 nM |
